# Data: patent US10576050B2, “Methods and compositions for treatment of cancer” (ONCONOVA THERAPEUTICS, INC., priority 2012, dated 2020)
# “And” between values parts separate entries of the source, which are not always exact repeats. Equal entries are not always repeated.
# What was measured:
# [1] = tested on: human GM-CSF-dependent erythroblastic TF-1 cell line; test: In vitro effect of ON 01910.Na on cell cycle readouts in TF-1 cells by SCNP; type: cell-based; conditions: 24 hours
# Procedure: FIG. 2: In vitro effect of ON 01910.Na at clinically relevant concentrations on intracellular pathways in human GM-CSF-dependent erythroblastic TF-1 cell line using SCNP was evaluated in order to monitor transitional changes in the cell cycle, with a focus on the G2-M phase and to perform dose-dependent titrations of drug using these cell cycle readouts. The reagents chosen to measure cell cycle readouts were fluorochrome-conjugated antibodies that recognize cyclin B1, p-histone H3(S28) and p-Cdk1(Y15) and 4′6′-diamino-2-phenylindole (DAPI). […] TF-1 cell DNA content measured by DAPI verified this to be the case as increases in G2/M and sub-G1 (a measure of apoptotic cell death) were simultaneously observed. […] These effects were also observed at 48 hours, although with more cell death. This assay was used to measure the pharmacodynamics activity of the drug in MDS patient samples pre- and post-treatment with ON 01910.Na.
# [2] = Phase I/II study of Rigosertib continuous IV infusion in relapsed or refractory AML or transformed MPN; conditions: for concentration at 6 h: human, in vivo, 2400 mg/day, average plasma levels, 2400 mg/day CIV
# Procedure: (§1) Methods: The patients were >18 years of age with relapsed or refractory AML or transformed myeloproliferative neoplasms (MPN). Patients were given Rigosertib by continuous IV infusions over 24 hours with a fixed dose of 2400 mg/day either for 72 hrs or 120 hrs every other week using a standard dose escalation scheme. A blood sample was withdrawn at 6 hrs after the start of infusion during cycle 1 and cycle 2 to assess the plasma concentration of Rigosertib. The study was subsequently amended and, after 2 cycles of IV Rigosertib (each cycle being 2 weeks) patients received Rigosertib orally, 560 mg twice a day continuously for 20 weeks. The objectives of Phase I study were to define maximum tolerated dose (MTD), dose limiting toxicities (DLT), and identify all toxicities and anti-leukemia activity. Phase II primary objective was to determine the clinical efficacy; secondary objectives were to assess time to response or progression, duration of response and overall survival at 6 months.
# as §1, with “Patients with” for “Methods: The patients were >18 years of age with”, “neoplasms (MPN)” for “neoplasms (MPN). Patients”, “hours (hrs)” for “hours”, “of phase 1” for “of Phase I”, “(DLT),” for “(DLT), and”, “Phase 2” for “Phase II”
# [3] = Dose escalation of oral Rigosertib twice daily in patients with refractory solid tumors; type: in vivo, human; conditions: BID continuously, 25 patients
# Procedure: Twenty-five patients with histologically confirmed solid tumors refractory to standard therapy were given escalating doses of oral Rigosertib twice daily. Doses were increased according to a schedule until the appearance of grade 2 or grade 3/4 toxicities. The maximum tolerated dose (MTD) of oral Rigosertib administered twice daily continuously is 560 mg BID. Dysuria was identified as a potential dose-limiting adverse event and a reported toxicity. […] The antitumor activity in this study supported past observations of Rigosertib efficacy in other solid tumor clinical trials. Pharmacokinetic (PK) data reveal plasma levels with oral Rigosertib were above the predicted pharmacodynamically active levels. Final safety and efficacy results, plasma and urinary PK relationships, and mutational analyses from archival tissue are presented
# [4] = Phase II randomized two-arm study of oral Rigosertib (560 mg bid, intermittent or continuous) in transfusion-dependent lower risk MDS patients; conditions: for median duration of treatment: FIG. 5
# Procedure: Methods: This is a randomized, two-arm study of oral Rigosertib (560 mg bid) administered either intermittently (2 out of 3 weeks) or continuously. Transfusion-dependent patients received at least 4 units RBC transfusions over 8 weeks before randomization as well as transfusions and erythrocyte stimulating agents (ESAs) while on study.
# The study design in low or independent transfusion-dependent MDS patients: 43 patients enrolled and randomized 1:1 in two groups. The first group was administered 560 mg capsules BID in days 1-14 of 21 day cycle. The second group was administered 560 mg capsules BID in days 1-21 of 21 day cycle. […] The protocol was amended for the […] on intermittent dosing.
# In these cases 560 mg bid dosing was replaced with 560 mg am (30 min+ before breakfast) and 280 mg 2 hs+ after lunch and 30 min+ before dinner. Dysuria questionnaire (American Urological Association) was provided to all patients at baseline, 3 weeks and every 3 cycles thereafter and recommend for vigorous hydration and bicarbonate prn.
# The ongoing phase II trial 09-05 is designed to evaluate oral Rigosertib as a single agent in transfusion-dependent lower risk MDS patients. This trial is a randomized, two-arm study of oral Rigosertib (560 mg bid) administered either intermittently (2 out of 3 weeks) or continuously. Transfusion-dependent patients must have received at least 4 units of RBC transfusions over 8 weeks before randomization and can receive transfusions and erythrocyte stimulating agents (ESAs) while on study.
# [5] = 34 patients dosed intermittently
# [6] = individual transfusion responders
smiles,measurement,setting,value
"COc1cc(OC)c(/C=C/S(=O)(=O)Cc2ccc(OC)c(NCC(=O)[O-])c2)c(OC)c1.[Na+] [Rigosertib, sodium (E)-2-{2-methoxy-5-[(2′,4′,6′-trimethoxystyrylsulfonyl)methyl]phenylamino}acetate]",effect on G2/M cell cycle transition,[1]; DAPI DNA content,mitotic arrest with subsequent apoptosis
same,drug concentration of maximal effects on cell cycle signaling molecules,"[1]; cyclin B1, p-histone H3(S28), p-Cdk1(Y15)",0.37 µM
same,patients with transient hematologic response with improvement of platelets,[2]; 4 patients,16%
same,"absolute reduction of peripheral blasts (best response, stabilization of disease)",[2]; after 2 cycles,> 50%
same,patients with stabilization of disease with >50% absolute reduction of peripheral blasts,"[2]; after 2 cycles, 2/25 patients",8%
same,patients with peripheral blasts maintained at +/−10% of pretreatment level,"[2]; after 2 cycles, 4 patients",16%
same,concentration at 6 h,"[2]; week 1, 6 hrs after start of infusion",9.2 ± 5.05 µM
same,concentration at 6 h,"[2]; week 3, 6 hrs after start of infusion",9.81 ± 6.7 µM
same,toxicity profile,[2]; main adverse event transient AMS (altered mental status),acceptable toxicity profile
same,DLT dose,[2]; over 24 hrs,2400 mg
same,MTD,"[2]; over 24 hrs for 3 days, CIV",2400 mg
same,maximum tolerated dose (MTD),[3],560 mg
same,overall tolerability of oral Rigosertib,[4]; 560 mg bid,well tolerated
same,"patients achieving TI, intent-to-treat analysis","[4]; 14/39 patients, intermittent dosing",36%
same,patients achieving transfusion independence,[4]; 15 patients treated with intermittent dosing for at least 8 weeks,47%
same,median duration of transfusion independence,"[4]; 15 responders, intermittent dosing (conclusion)",17 weeks
same,"patients achieving TI, intent-to-treat analysis",[4]; 17/48 patients (conclusion),35%
same,patients with transfusion independence,"[4]; 26 evaluable patients (8 wks+ treatment), intermittent 560 mg bid, FIG. 9",50% and 46%
same,"Abdominal Pain/discomfort, GRADE 2 incidents",[4]; [5],1
same,"Abdominal Pain/discomfort, GRADE 3 incidents",[4]; [5],0
same,"Abdominal Pain/discomfort, TOTAL %",[4]; [5],3%
same,"Diarrhea, GRADE 2 incidents",[4]; [5],1
same,"Diarrhea, GRADE 3 incidents",[4]; [5],0
same,"Diarrhea, TOTAL %",[4]; [5],3%
same,"Fatigue, GRADE 2 incidents",[4]; [5],5
same,"Fatigue, GRADE 3 incidents",[4]; [5],0
same,"Fatigue, TOTAL %",[4]; [5],15%
same,"Hematuria or Cytitis, GRADE 2 incidents",[4]; [5],1
same,"Hematuria or Cytitis, GRADE 3 incidents",[4]; [5],5
same,"Hematuria or Cytitis, TOTAL %",[4]; [5],18%
same,"Insomnia, GRADE 2 incidents",[4]; [5],1
same,"Insomnia, GRADE 3 incidents",[4]; [5],0
same,"Insomnia, TOTAL %",[4]; [5],3%
same,"Nausea, GRADE 2 incidents",[4]; [5],3
same,"Nausea, GRADE 3 incidents",[4]; [5],0
same,"Nausea, TOTAL %",[4]; [5],9%
same,"Neutropenia, GRADE 2 incidents",[4]; [5],2
same,"Neutropenia, GRADE 3 incidents",[4]; [5],2
same,"Neutropenia, TOTAL %",[4]; [5],6%
same,"Urinary urgency, GRADE 2 incidents",[4]; [5],12
same,"Urinary urgency, GRADE 3 incidents",[4]; [5],0
same,"Urinary urgency, SAE",[4]; [5],1
same,"Urinary urgency, TOTAL %",[4]; [5],35%
same,patients achieving transfusion independence,[4]; 36 patients on intermittent dosing treated for at least 8 consecutive weeks,39%
same,Responders (overall transfusion response),[4]; Continuous regimen,2
same,Responders (overall transfusion response),[4]; Intermittent regimen,13
same,Responders (overall transfusion response),[4]; Total,15
same,patients with grade 2+ urinary side effects,[4]; continuous dosing arm,5 of 9
same,median duration of treatment,"[4]; continuous dosing, 9 patients",24 weeks
same,patients achieving transfusion independence,"[4]; continuous dosing, nine patients (8 treated for at least 8 weeks)",two
same,patients progressed,[4]; four evaluable RAEB patients,one
same,patients achieving bone marrow complete response according to IWG 2006 criteria,"[4]; four evaluable RAEB patients, one unconfirmed",three
same,"Response (bone marrow, IWG 2006 criteria)",[4]; individual RAEB-1/RAEB-2 patients,BMCR (2×) and BMCRu
same,Response week Duration (transfusion independence),[4]; [6],≥ 48 weeks and ≥ 37 weeks and 17 weeks and 37+ weeks and 9 weeks and 28 weeks and 30 weeks and 8 weeks and 17+ weeks and 12 weeks and 14+ weeks and 48+ weeks
same,Response week Onset (transfusion response),[4]; [6],1 weeks (8×) and 24 weeks and 14 weeks and 4 weeks and 19 weeks and 13 weeks
same,patients with urinary grade 2+ toxicity,[4]; intermittent dosing with option of dose interruption/reduction,4/20
same,median duration of treatment,"[4]; intermittent dosing, 34 patients",not reached
same,patients achieving transfusion independence,"[4]; intermittent dosing, at least 8 consecutive weeks, 15 patients (conclusion)",45%
same,interaction between Rigosertib and ESA,"[4]; lower-risk transfusion dependent MDS, concomitant ESA",synergy
same,patients developing grade 2 urinary toxicity,"[4]; twelve patients, 560 mg AM and 280 mg PM, median 6 weeks",one
same,Bone marrow blast values,"[4]; week 15 follow-up, individual RAEB-1/RAEB-2 patients",4% and 10% and 77% and 3%
same,Bone marrow blast values,"[4]; week 30 follow-up, individual RAEB-1/RAEB-2 patients",4% and 9%
same,Bone marrow blast values,"[4]; week 45 follow-up, individual RAEB-1/RAEB-2 patients",5%
same,Bone marrow blast values,"[4]; week 60 follow-up, individual RAEB-1/RAEB-2 patients",5%
